Results published in patent US4696937A, “Thiosulfonate derivatives for inhibiting malformation or destruction of red blood corpuscules” (Sanofi, priority 1984, dated 1987).

What was measured:
[1] = tested on: red cells of subjects suffering from drepanocytosis; experiment: Inhibition of sickling of human red blood corpuscules of subjects suffering from drepanocytosis; type: cell-based; settings: pH 7.40, one hour at 37° C.
Procedure: Inhibition of the sickling of human red blood corpuscules was assessed by washing and incubating, in a saline buffer (pH: 7.40; 0.15M) for one hour at 37° C., the red cells of subjects suffering from drepanocytosis. This operation was carried out in a water-bath under stirring and in the presence of a compound of the invention used at different concentrations. The molar ratios between the compound of the invention and the haemoglobin were initially tested at intervals ranging from 0.5 to 20, the mM concentration in haemoglobin being 0.5 in each case and the ratio being modified according to the results obtained.
At the end of incubation, the excess of the product being tested was removed by washing and the cellular suspension adjusted so as to form a haematocrit of 5% was transferred to an Erlenmeyer flask and incubated at 37° C. under a current comprising a humidified mixture of nitrogen and oxygen the oxygen concentration being regulated by a gas-mixing pump. The effluent gas was then transferred to another tube containing formaldehyde and, at the end of incubation, the cellular suspension was transferred to the formaldehyde by merely turning the flask upside down.
The proportion of deformed cells and those having the characteristics of drepanocytes (having two filiform extensions) was assessed with the aid of a microscope having a NORMARSKY interferential optical system. Inhibition of sickling was calculated according to the following formula: [formula]
The following results were obtained with representative compounds of the present invention in comparison with cystamine.

sickling = settings: literature: Inserm Symposium 1979; in words; cited from earlier work

| SMILES | % inhibition of sickling of the red blood corpuscles ([1]; 1 mmolar) [%] | % inhibition of sickling of the red blood corpuscles ([1]; 5 mmolar) [%] | inhibiting sickling (sickling) | % inhibition of sickling of the red blood corpuscles ([1]; 0.5 mmolar) [%] |
| --- | --- | --- | --- | --- |
| Cc1ccc(S(=O)(=O)Sc2nnc(N)s2)cc1 [5-amino-1,3,4-thiadiazol-2-yl p-toluenethiosulfonate] | 33 |  |  |  |
| NCCSSCCN [Cystamine, cystamine, reference compound] |  | 33 | particularly active |  |
| Cc1ccc(S(=O)(=O)Sc2ncc[nH]2)cc1 [1H-imidazol-2-yl p-toluenethiosulfonate] | 100 |  |  | 50 |
